Results reported in the NIST ThermoML archive (doi:10.1016/j.jct.2019.03.023).
“And” between values parts separate entries of the source, which are not always exact repeats. Equal entries are not always repeated.

Experiment: molar heat capacity at constant volume
Conditions: Vacuum adiabatic calorimetry

CC(C)O [propan-2-ol]
Fluid (supercritical or subcritical phases)
Conditions | molar heat capacity at constant volume
314.29 K, Mass density=329.2 kg/m3 | 177.46 J/K/mol
314.52 K, Mass density=329.2 kg/m3 | 182.81 J/K/mol
314.8 K, Mass density=329.2 kg/m3 | 184.67 J/K/mol
315.05 K, Mass density=329.2 kg/m3 | 181.49 J/K/mol
315.3 K, Mass density=329.2 kg/m3 | 177.88 J/K/mol
315.42 K, Mass density=329.2 kg/m3 | 176.26 J/K/mol
315.61 K, Mass density=329.2 kg/m3 | 174.88 J/K/mol
315.8 K, Mass density=329.2 kg/m3 | 178.6 J/K/mol
317.44 K, Mass density=697.69 kg/m3 | 170.85 J/K/mol
317.57 K, Mass density=697.69 kg/m3 | 172.41 J/K/mol
317.7 K, Mass density=697.69 kg/m3 | 172.71 J/K/mol
317.95 K, Mass density=697.69 kg/m3 | 168.15 J/K/mol
318.07 K, Mass density=697.69 kg/m3 | 168.15 J/K/mol
318.2 K, Mass density=697.69 kg/m3 | 171.69 J/K/mol
318.32 K, Mass density=697.69 kg/m3 | 171.33 J/K/mol
318.45 K, Mass density=697.69 kg/m3 | 173.98 J/K/mol
318.57 K, Mass density=697.69 kg/m3 | 170.25 J/K/mol
318.7 K, Mass density=697.69 kg/m3 | 175.24 J/K/mol
331.87 K, Mass density=697.69 kg/m3 | 192 J/K/mol
332.06 K, Mass density=697.69 kg/m3 | 191.34 J/K/mol
332.12 K, Mass density=697.69 kg/m3 | 189.48 J/K/mol
332.24 K, Mass density=697.69 kg/m3 | 188.82 J/K/mol
332.36 K, Mass density=697.69 kg/m3 | 187.74 J/K/mol
332.48 K, Mass density=697.69 kg/m3 | 189.96 J/K/mol
332.6 K, Mass density=697.69 kg/m3 | 190.26 J/K/mol
332.72 K, Mass density=697.69 kg/m3 | 187.74 J/K/mol
332.85 K, Mass density=697.69 kg/m3 | 192.36 J/K/mol
333.03 K, Mass density=697.69 kg/m3 | 188.7 J/K/mol
340.8 K, Mass density=697.69 kg/m3 | 195.19 J/K/mol
340.92 K, Mass density=697.69 kg/m3 | 192.6 J/K/mol
341.04 K, Mass density=697.69 kg/m3 | 196.99 J/K/mol
341.16 K, Mass density=697.69 kg/m3 | 193.33 J/K/mol
341.28 K, Mass density=697.69 kg/m3 | 197.83 J/K/mol
341.4 K, Mass density=697.69 kg/m3 | 196.15 J/K/mol
341.52 K, Mass density=697.69 kg/m3 | 194.89 J/K/mol
341.64 K, Mass density=697.69 kg/m3 | 195.13 J/K/mol
341.76 K, Mass density=697.69 kg/m3 | 196.21 J/K/mol
341.91 K, Mass density=329.2 kg/m3 | 203.12 J/K/mol
342.08 K, Mass density=329.2 kg/m3 | 202.22 J/K/mol
342.19 K, Mass density=329.2 kg/m3 | 203.54 J/K/mol
342.32 K, Mass density=329.2 kg/m3 | 207.27 J/K/mol
342.49 K, Mass density=329.2 kg/m3 | 201.32 J/K/mol
342.67 K, Mass density=329.2 kg/m3 | 203.72 J/K/mol
342.79 K, Mass density=329.2 kg/m3 | 202.76 J/K/mol
342.91 K, Mass density=329.2 kg/m3 | 201.62 J/K/mol
343.03 K, Mass density=329.2 kg/m3 | 204.08 J/K/mol
355.67 K, Mass density=697.69 kg/m3 | 207.33 J/K/mol
355.78 K, Mass density=697.69 kg/m3 | 211.29 J/K/mol
355.9 K, Mass density=697.69 kg/m3 | 211.9 J/K/mol
356.02 K, Mass density=697.69 kg/m3 | 209.49 J/K/mol
356.13 K, Mass density=697.69 kg/m3 | 211.11 J/K/mol
356.25 K, Mass density=697.69 kg/m3 | 212.68 J/K/mol
356.37 K, Mass density=697.69 kg/m3 | 211.77 J/K/mol
356.48 K, Mass density=697.69 kg/m3 | 211.96 J/K/mol
369.05 K, Mass density=329.2 kg/m3 | 225.9 J/K/mol
369.16 K, Mass density=329.2 kg/m3 | 220.01 J/K/mol
369.28 K, Mass density=329.2 kg/m3 | 231.31 J/K/mol
369.39 K, Mass density=329.2 kg/m3 | 222.83 J/K/mol
369.5 K, Mass density=329.2 kg/m3 | 225.96 J/K/mol
369.67 K, Mass density=329.2 kg/m3 | 223.55 J/K/mol
369.84 K, Mass density=329.2 kg/m3 | 221.75 J/K/mol
369.96 K, Mass density=329.2 kg/m3 | 221.03 J/K/mol
370.07 K, Mass density=329.2 kg/m3 | 219.47 J/K/mol
370.24 K, Mass density=697.69 kg/m3 | 222.11 J/K/mol
370.36 K, Mass density=697.69 kg/m3 | 222.41 J/K/mol
370.47 K, Mass density=697.69 kg/m3 | 220.43 J/K/mol
370.58 K, Mass density=697.69 kg/m3 | 219.77 J/K/mol
370.7 K, Mass density=697.69 kg/m3 | 222.05 J/K/mol
370.81 K, Mass density=697.69 kg/m3 | 222.29 J/K/mol
370.92 K, Mass density=697.69 kg/m3 | 220.61 J/K/mol
371.04 K, Mass density=697.69 kg/m3 | 221.57 J/K/mol
378.45 K, Mass density=697.69 kg/m3 | 221.99 J/K/mol
378.57 K, Mass density=697.69 kg/m3 | 220.67 J/K/mol
378.68 K, Mass density=697.69 kg/m3 | 223.19 J/K/mol
378.79 K, Mass density=697.69 kg/m3 | 223.37 J/K/mol
378.9 K, Mass density=697.69 kg/m3 | 220.97 J/K/mol
379.01 K, Mass density=697.69 kg/m3 | 222.41 J/K/mol
379.24 K, Mass density=697.69 kg/m3 | 222.71 J/K/mol
379.35 K, Mass density=697.69 kg/m3 | 221.33 J/K/mol
379.46 K, Mass density=697.69 kg/m3 | 221.99 J/K/mol
379.57 K, Mass density=697.69 kg/m3 | 220.55 J/K/mol
379.68 K, Mass density=697.69 kg/m3 | 222.53 J/K/mol
379.79 K, Mass density=697.69 kg/m3 | 221.81 J/K/mol
379.9 K, Mass density=697.69 kg/m3 | 222.53 J/K/mol
380.02 K, Mass density=697.69 kg/m3 | 224.03 J/K/mol
380.13 K, Mass density=697.69 kg/m3 | 223.07 J/K/mol
380.24 K, Mass density=697.69 kg/m3 | 222.05 J/K/mol
380.35 K, Mass density=697.69 kg/m3 | 223.97 J/K/mol and 182.81 J/K/mol
380.42 K, Mass density=697.69 kg/m3 | 185.51 J/K/mol
380.56 K, Mass density=697.69 kg/m3 | 185.69 J/K/mol
380.68 K, Mass density=697.69 kg/m3 | 187.44 J/K/mol

Conditions | molar heat capacity at constant volume [J/K/mol]
380.35 K, Liquid | 182.81
